Here are results for eleven molecules from patent US20260184710A1, “CASITAS B-LINEAGE LYMPHOMA PROTOONCOGENE B (CBL-B) DEGRADING COMPOUNDS AND ASSOCIATED METHODS OF USE” (Arvinas Operations, Inc., priority 2022, published 2026).

Assay [1] addresses T1, Cbl-b (Homo sapiens, UniProt Q13191).
T1 construct: Cbl-b-HiBit KI Jurkat Cells were purchased from Promega; host or cells: Cbl-b-HiBiT knock-in Jurkat cells
The experiment in a line: Cbl-b Degradation Method A (FACS, anti-Cbl-b antibody staining). Particulars: Cbl-b-HiBit KI Jurkat Cells, incubated at least 20 hours; for DC50: half maximal degradation, read-out: Cbl-b Degredation Method A IC50; for Dmax: Jurkat, maximum degradation observed, read-out: Cbl-b Degredation Method A Dmax (%). In kind it is cell-based. The procedure, abridged:
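Readout is flow cytometry of fixed, permeabilized cells immunostained for Cbl-b (primary 1:200, AF488 secondary). Cells were Cbl-b-HiBit knock-in Jurkat, exposed to compound ≥20 h at 37 °C; half-maximal degradation concentration (DC50) and maximal degradation (Dmax) calculated relative to control.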
(HiBiT is a short tag that completes a luciferase, so light tracks the accessible tagged protein.)

Assay [2] concerns the target T1, Cbl-b. The experiment in a line: Cbl-b Degradation Method B (Nano-Glo HiBiT lytic detection). Type of assay: cell-based. As to conditions: Cbl-b-HiBit KI Jurkat Cells, incubated at least 6-24 hours; for DC50: half maximal degradation, read-out: Cbl-b Degredation Method B IC50; for Dmax / Cbl-b Degredation Method B Dmax (%): maximum degradation observed; for Dmax: read-out: Cbl-b Degredation Method B Dmax (%). Put shortly:
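An 11-point, 3-fold compound dilution was applied for 6-24 hours to Jurkat cells carrying HiBiT-tagged endogenous Cbl-b. Lytic HiBiT luminescence quantified residual protein. Outputs are DC50 and Dmax relative to DMSO control.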

T1 sequence (Q13191 whole entry): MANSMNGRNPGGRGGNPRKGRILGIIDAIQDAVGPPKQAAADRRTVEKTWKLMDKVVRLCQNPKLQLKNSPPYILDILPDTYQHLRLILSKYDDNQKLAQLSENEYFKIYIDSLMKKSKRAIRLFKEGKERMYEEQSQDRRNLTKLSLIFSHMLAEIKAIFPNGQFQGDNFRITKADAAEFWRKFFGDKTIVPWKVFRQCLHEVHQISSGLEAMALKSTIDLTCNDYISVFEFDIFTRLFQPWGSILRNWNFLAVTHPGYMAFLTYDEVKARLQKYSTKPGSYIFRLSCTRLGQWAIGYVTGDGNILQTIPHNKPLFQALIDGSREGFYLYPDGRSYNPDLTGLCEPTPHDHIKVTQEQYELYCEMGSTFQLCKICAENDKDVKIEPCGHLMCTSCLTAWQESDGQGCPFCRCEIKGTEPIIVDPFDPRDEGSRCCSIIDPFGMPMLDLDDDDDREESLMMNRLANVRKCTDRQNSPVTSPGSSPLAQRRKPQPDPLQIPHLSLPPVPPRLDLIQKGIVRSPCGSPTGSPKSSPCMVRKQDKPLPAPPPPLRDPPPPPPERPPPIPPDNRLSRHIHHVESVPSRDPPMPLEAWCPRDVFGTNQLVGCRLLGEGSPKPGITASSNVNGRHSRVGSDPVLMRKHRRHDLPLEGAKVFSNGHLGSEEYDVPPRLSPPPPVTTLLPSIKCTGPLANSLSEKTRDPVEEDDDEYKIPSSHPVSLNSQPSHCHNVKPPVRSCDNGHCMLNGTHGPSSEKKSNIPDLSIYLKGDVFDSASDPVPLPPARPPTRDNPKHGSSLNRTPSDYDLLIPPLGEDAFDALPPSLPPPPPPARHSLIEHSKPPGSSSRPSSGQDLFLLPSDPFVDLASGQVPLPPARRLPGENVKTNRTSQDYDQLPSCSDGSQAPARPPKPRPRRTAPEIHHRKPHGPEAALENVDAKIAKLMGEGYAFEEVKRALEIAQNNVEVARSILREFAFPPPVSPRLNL

For the molecule `Cn1cnnc1C[C@]1(c2cccc(N3Cc4c(cc(CN5CCN(C[C@H]6CC[C@H](OC7CCN(c8ccc9c(c8)n(C)c(=O)n9C8CCC(=O)NC8=O)CC7)CC6)CC5)cc4C(F)(F)F)C3=O)c2)C[C@H](C#N)C1` (stereo partly drawn) [Example 215, (1r,3r)-3-[(4-methyl-4H-1,2,4-triazol-3-yl)methyl]-3-(3-{1-oxo-6-[(4-{[(1r,4r)-4-({1-[1-(2,6-dioxopiperidin-3-yl)-3-methyl-2-oxo-2,3-dihydro-1H-1,3-benzodiazol-5-yl]piperidin-4-yl}oxy)cyclohexyl]methyl}piperazin-1-yl)methyl]-4-(trifluoromethyl)-2,3-dihydro-1H-isoindol-2-yl}phenyl)cyclobutane-1-carbonitrile], on Cbl-b [1], the DC50 is < 5 nM and the greatest degradation seen (Dmax) (as a rule, the greatest extent of degradation seen) was > 70%. Moreover, on Cbl-b [2], the DC50 was < 5 nM and the Dmax was in the range of 35 to 70%.
For the molecule `Cn1cnnc1C[C@]1(c2cccc(N3Cc4c(cc(CN5CCN(C[C@H]6CC[C@H](OC7CCN(c8ccc9c(n8)n(C)c(=O)n9C8CCC(=O)NC8=O)CC7)CC6)CC5(C)C)cc4C(F)(F)F)C3=O)c2)C[C@H](C#N)C1` (stereo partly drawn) [Example 300, (1r,3r)-3-(3-{6-[(2,2-dimethyl-4-{[(1r,4r)-4-({1-[1-(2,6-dioxopiperidin-3-yl)-3-methyl-2-oxo-1H,2H,3H-imidazo[4,5-b]pyridin-5-yl]piperidin-4-yl}oxy)cyclohexyl]methyl}piperazin-1-yl)methyl]-1-oxo-4-(trifluoromethyl)-2,3-dihydro-1H-isoindol-2-yl}phenyl)-3-[(4-methyl-4H-1,2,4-triazol-3-yl)methyl]cyclobutane-1-carbonitrile], on Cbl-b [1], the DC50 is 50 to 500 nM and the Dmax was 35 to 70%. At Cbl-b [2], the DC50 was < 5 nM and the “Cbl-b Degredation Method B Dmax (%)” value is given as “C (C ≤ 35)”.
On to `Cn1cnnc1C[C@]1(c2cccc(N3Cc4c(cc(CN5CCN(C[C@H]6CC[C@H](OC7CCN(c8cccc9c8nc(OC(F)F)n9C8CCC(=O)NC8=O)CC7)CC6)CC5(C)C)cc4C(F)(F)F)C3=O)c2)C[C@H](C#N)C1` (stereo partly drawn) [Example 325, (1r,3r)-3-(3-{6-[(2,2-dimethyl-4-{[(1r,4r)-4-({1-[2-(difluoromethoxy)-1-(2,6-dioxopiperidin-3-yl)-1H-1,3-benzodiazol-4-yl]piperidin-4-yl}oxy)cyclohexyl]methyl}piperazin-1-yl)methyl]-1-oxo-4-(trifluoromethyl)-2,3-dihydro-1H-isoindol-2-yl}phenyl)-3-[(4-methyl-4H-1,2,4-triazol-3-yl)methyl]cyclobutane-1-carbonitrile], for which, on Cbl-b [1], the DC50 was in the range of 50 to 500 nM and the Dmax was 35 to 70%. Further, at Cbl-b [2], the DC50 is 5 to 50 nM and the “Cbl-b Degredation Method B Dmax (%)” value is recorded as “C (C ≤ 35)”.
With `CC1c2nc(N3CCC(O[C@H]4CC[C@H](CN5C[C@H]6C[C@@H]5CN6c5cc6c(c(C(F)(F)F)c5)CN(c5cccc([C@]7(Cc8nncn8C)C[C@@H](C#N)C7)c5)C6=O)CC4)CC3)ccc2C(=O)N1C1CCC(=O)NC1=O` (stereo partly drawn) [Example 181, (1r,3r)-3-[(4-methyl-4H-1,2,4-triazol-3-yl)methyl]-3-(3-{1-oxo-6-[(1R,4R)-5-{[(1r,4r)-4-({1-[6-(2,6-dioxopiperidin-3-yl)-7-methyl-5-oxo-5H,6H,7H-pyrrolo[3,4-b]pyridin-2-yl]piperidin-4-yl}oxy)cyclohexyl]methyl}-2,5-diazabicyclo[2.2.1]heptan-2-yl]-4-(trifluoromethyl)-2,3-dihydro-1H-isoindol-2-yl}phenyl)cyclobutane-1-carbonitrile], on Cbl-b [1], the DC50 was < 5 nM and the Dmax was in the range of 35 to 70%. Further, on Cbl-b [2], the DC50 was < 5 nM and the Dmax fell in the range of 35 to 70%.
Take `Cn1cnnc1C[C@]1(c2cccc(N3Cc4c(cc(N5CC6(CCN(CC7(F)CCN(c8ccc9c(c8)C(=O)N(C8CCC(=O)NC8=O)C9=O)CC7)CC6)C5)cc4C(F)(F)F)C3=O)c2)C[C@H](C#N)C1` (stereo partly drawn) [Example 172, (1r,3r)-3-(3-{6-[7-({1-[2-(2,6-dioxopiperidin-3-yl)-1,3-dioxo-2,3-dihydro-1H-isoindol-5-yl]-4-fluoropiperidin-4-yl}methyl)-2,7-diazaspiro[3.5]nonan-2-yl]-1-oxo-4-(trifluoromethyl)-2,3-dihydro-1H-isoindol-2-yl}phenyl)-3-[(4-methyl-4H-1,2,4-triazol-3-yl)methyl]cyclobutane-1-carbonitrile]: at Cbl-b [1], the DC50 is 5 to 50 nM and the Dmax was in the range of 35 to 70%. At Cbl-b [2], the DC50 was 5 to 50 nM and the Dmax was in the range of 35 to 70%.
Take `CC1c2nc(N3CCC(OC4CCC(CN5CCN(Cc6cc7c(c(C(F)(F)F)c6)CN(c6cccc(C8(Cc9nncn9C)COC8)c6)C7=O)C[C@H]5C)CC4)CC3)ccc2C(=O)N1C1CCC(=O)NC1=O` (stereo partly drawn) [Example 238, 3-[7-methyl-5-oxo-2-(4-{[(1rs,4rs)-4-{[(2R)-2-methyl-4-{[2-(3-{3-[(4-methyl-4H-1,2,4-triazol-3-yl)methyl]oxetan-3-yl}phenyl)-3-oxo-7-(trifluoromethyl)-2,3-dihydro-1H-isoindol-5-yl]methyl}piperazin-1-yl]methyl}cyclohexyl]oxy}piperidin-1-yl)-5H,6H,7H-pyrrolo[3,4-b]pyridin-6-yl]piperidine-2,6-dione]: at Cbl-b [1], the DC50 is 5 to 50 nM and the maximal degradation (Dmax) was 35 to 70%. At Cbl-b [2], the DC50 was < 5 nM and the Dmax was 35 to 70%.
As for `Cn1cnnc1CC1(c2cccc(N3Cc4c(cc(CN5CCC(COCCOCCOc6cccc7c6C(=O)N(C6CCC(=O)NC6=O)C7=O)CC5)cc4C(F)(F)F)C3=O)c2)COC1` (stereo not drawn) [Example 91, 2-(2,6-dioxopiperidin-3-yl)-4-(2-{2-[(1-{[2-(3-{3-[(4-methyl-4H-1,2,4-triazol-3-yl)methyl]oxetan-3-yl}phenyl)-3-oxo-7-(trifluoromethyl)-2,3-dihydro-1H-isoindol-5-yl]methyl}piperidin-4-yl)methoxy]ethoxy}ethoxy)-2,3-dihydro-1H-isoindole-1,3-dione], the DC50 at Cbl-b [1] and at Cbl-b [2] was > 500 nM in each case.
Consider `CC1c2nc(N3CCC(O[C@H]4CC[C@H](CN5CCN(Cc6cc7c(c(C(F)(F)F)c6)CN(c6cccc(C8(Cc9nncn9C9CC9)COC8)c6)C7=O)CC5)CC4)CC3)ccc2C(=O)N1C1CCC(=O)NC1=O` (stereo partly drawn) [Example 211, 3-[7-methyl-5-oxo-2-(4-{[(1r,4r)-4-[(4-{[2-(3-{3-[(4-cyclopropyl-4H-1,2,4-triazol-3-yl)methyl]oxetan-3-yl}phenyl)-3-oxo-7-(trifluoromethyl)-2,3-dihydro-1H-isoindol-5-yl]methyl}piperazin-1-yl)methyl]cyclohexyl]oxy}piperidin-1-yl)-5H,6H,7H-pyrrolo[3,4-b]pyridin-6-yl]piperidine-2,6-dione], for which, at Cbl-b [1], the DC50 was < 5 nM and the greatest degradation seen (Dmax) is < 35%. Further, the DC50 at Cbl-b [2] is > 500 nM.
With `Cn1cnnc1CC1(c2cccc(N3Cc4c(cc(CN5CC[C@H](CN6CCN(C[C@H]7CC[C@H](OC8CCN(c9ccc%10c(c9F)CN(C9CCC(=O)NC9=O)C%10=O)CC8)CC7)CC6)C5)cc4C(F)(F)F)C3=O)c2)COC1` (stereo partly drawn) [Example 10, 3-[4-fluoro-1-oxo-5-(4-{[(1r, 4r)-4-[(4-{[(3S)-1-{[2-(3-{3-[(4-methyl-4H-1,2,4-triazol-3-yl)methyl]oxetan-3-yl}phenyl)-3-oxo-7-(trifluoromethyl)-2,3-dihydro-1H-isoindol-5-yl]methyl}pyrrolidin-3-yl]methyl}piperazin-1-yl)methyl]cyclohexyl]oxy}piperidin-1-yl)-2,3-dihydro-1H-isoindol-2-yl]piperidine-2,6-dione], at Cbl-b [1], the DC50 was < 5 nM and the maximal degradation (Dmax) was > 70%. Also, at Cbl-b [2], the DC50 is < 5 nM and the Dmax was > 70%.
On to `Cn1cnnc1CC1(c2cccc(N3Cc4c(cc(CN5CCC(COCCOc6ccc7c(c6)C(=O)N(C6CCC(=O)NC6=O)C7=O)CC5)cc4C(F)(F)F)C3=O)c2)COC1` (stereo not drawn) [Example 87, 2-(2,6-dioxopiperidin-3-yl)-5-(2-((1-((2-(3-(3-((4-methyl-4H-1,2,4-triazol-3-yl)methyl)oxetan-3-yl)phenyl)-3-oxo-7-(trifluoromethyl)isoindolin-5-yl)methyl)piperidin-4-yl)methoxy)ethoxy)isoindoline-1,3-dione], for which the DC50 on Cbl-b [1] was 50 to 500 nM; on Cbl-b [2], > 500 nM.
As to `Cn1cnnc1CC1(c2cccc(N3Cc4c(cc(N5CCN(C[C@H]6CC[C@H](OC7CCN(c8ccc9c(c8F)CN(C8CCC(=O)NC8=O)C9=O)CC7)CC6)CC5)cc4C(F)(F)F)C3=O)c2)COC1` (stereo partly drawn) [Example 139, 3-[4-fluoro-1-oxo-5-(4-{[(1r,4r)-4-({4-[2-(3-{3-[(4-methyl-4H-1,2,4-triazol-3-yl)methyl]oxetan-3-yl}phenyl)-3-oxo-7-(trifluoromethyl)-2,3-dihydro-1H-isoindol-5-yl]piperazin-1-yl}methyl)cyclohexyl]oxy}piperidin-1-yl)-2,3-dihydro-1H-isoindol-2-yl]piperidine-2,6-dione], on Cbl-b [1], the DC50 fell in the range of 5 to 50 nM and the maximal degradation (Dmax) was in the range of 35 to 70%. Further, at Cbl-b [2], the DC50 lay in the range of 5 to 50 nM and the Dmax lay within 35 to 70%.
